According to patent US20260091136A1, “USING ENHO GENE THERAPY TO TREAT CARDIOMETABOLIC DISEASE” (University of Pittsburgh-of the Commonwealth System of …, priority 2023, published 2026):
“Also recorded” adds a separate entry of the source.

How the values were obtained:
HFpEF mice [1] = experiment: Body weight during four weeks of daily recombinant Adropin in HFpEF mice (Example 1); type: in vivo; conditions: for relative body weight (change per mouse between days 0 and 29): p-value<0.0001
Text: The mouse HFpEF model used in this study was first reported in Schiattarella et al. (2019), Nature 568: 351-356 (PMID: 30971818). Adult C57BL/6N or C57BL/6J mice (i.e. C57BL/6 wildtype) are placed on a diet of either regular chow (“control”), or a high fat diet (60% fat) supplemented with 0.5 g/L L-NAME in drinking water (“HFpEF”) for 5-20 weeks.
Administration of Recombinant Adropin. Mice received low-fat chow or HFpEF diet for 10 weeks. For the following 4 weeks, the mice were maintained on respective diets and received daily injections of recombinant Adropin. Body weight was measured every day during the four weeks of treatment.

HFpEF mice [2] = experiment: Heart weight and heart histology (Masson's trichrome, WGA), cohort 2; type: in vivo, C57BL/6J mice; conditions: for cardiac fibrosis / cardiomyocyte hypertrophy: HFpEF mice following Adropin treatment, histology
Text: (§1) Animal Care and Use. Male C57BL/6J 8-week-old mice were obtained from the Jackson Laboratory and maintained on chow for 4 weeks to acclimate to their new environment. Animals were housed in the University of Pittsburgh animal facility under standard conditions with ad libitum access to water and food and maintained on a constant 12-hour light/dark cycle. At 12 weeks of age, the mice were exposed to normal chow (Chow; 60% carbohydrate, 26% protein, 14% fat), or a combination of high-fat diet (HFD; 20% carbohydrate, 20% protein, 60% fat) plus No-nitro-L-arginine methyl ester (L-NAME: 0.5 g/L) supplemented in their drinking water after adjusting the pH to 7.4 with 1N NaOH to induce HFpEF [10]. For cohort 1, the mice were subject to the HFpEF diet for 15 weeks. For cohort 2, after 8 weeks of diet, mice were randomly assigned to a control or treatment group receiving daily intraperitoneal injections of either vehicle or recombinant adropin at 450 nmol/kg animal weight prepared in PBS with 0.1% BSA for the remaining 5 weeks of the study. L-NAME supplemented drinking water was changed weekly and adropin was made fresh and sterile filtered before each use.
Histology. Preparation and staining of all histological samples were conducted by the Pitt Biospecimen Core at the University of Pittsburgh. All mice were sacrificed, and tissue harvested for analysis within one hour of completion of the IPGTT study. The apex of the heart and right (cohort 1) or left (cohort 2) lobe of the liver was excised from each mouse following euthanasia, fixed in 10% buffered formalin phosphate overnight at shaking incubation, washed 3 times for 5 min with 1× phosphate-buffered saline (PBS), and then transferred to 70% ethanol. Samples were then embedded in paraffin, sectioned into 4 μm slides and stained with hematoxylin and eosin (H&E), wheat germ agglutinin (WGA) or Masson's Trichrome for analysis. The NAFLD/MAFLD activity score (NAS) was obtained based on methods established by the Pathology Committee of the Non-alcoholic Steatohepatitis (NASH) Clinical Research Network. Liver pathology scoring was performed in a blinded independent fashion. NAS consisted of separate category scores which included steatosis (0-3), where 0=0-5%, 1=6-33%, 2=34-66%, and 3=67-100% of hepatocytes positive for steatosis; lobular inflammation (0-3), where 0=no foci, 1=[…], 2=2-4 foci and 3=greater than 4 foci all per 200× field; and hepatocellular ballooning (0-2), where 0=none present, 1=few and 2=many/prominent. The final NAS represents a sum of the three category scores. Histology sections were visualized with the Evos FL Auto 2 Microscope, observed changes in structure were quantified using ImageJ software and representative images are shown.

HFpEF mice [3] = experiment: Body weight, HFpEF (HFD+L-NAME) mice with daily i.p. recombinant adropin (cohort 2, Examples 3 and 4); type: in vivo, C57BL/6J mice; conditions: HFpEF+Adropin vs vehicle-treated HFpEF, 450 nmol/kg daily i.p., day 28
Text: (§2) Twelve week-old C57BL/6J wild-type male mice were exposed to normal chow, or a combination of 60% high fat diet plus N^ω-nitro-L-arginine methyl ester (L-NAME: 0.5 g/L in drinking water) to induce HFpEF. After 8 weeks of diet, mice were randomly assigned to a control HFpEF group, or to a group receiving daily intraperitoneal injections of recombinant Adropin (450 nmol/kg) for the remaining weeks of the study. All animal experiments were approved by the University of Pittsburgh Institutional Animal Care and Use Committee. […] These changes occurred in the absence of systolic dysfunction (FIG. 6). Each marker of cardiac dysfunction was absent in HFpEF mice treated with Adropin (FIG. 6).
Animal Care and Use. Male C57BL/6J 8-week-old mice were obtained from the Jackson Laboratory and maintained on chow for 4 weeks to acclimate to their new environment. Animals were housed in the University of Pittsburgh animal facility under standard conditions with ad libitum access to water and food and maintained on a constant 12-hour light/dark cycle. At 12 weeks of age, the mice were exposed to normal chow (Chow; 60% carbohydrate, 26% protein, 14% fat), or a combination of high-fat diet (HFD; 20% carbohydrate, 20% protein, 60% fat) plus No-nitro-L-arginine methyl ester (L-NAME: 0.5 g/L) supplemented in their drinking water after adjusting the pH to 7.4 with 1N NaOH to induce HFpEF [10]. […]

HFpEF mice [4] = experiment: Liver H&E histology, NAFLD/MAFLD activity score (NAS), cohort 2; type: in vivo, C57BL/6J mice; conditions: adropin-treated vs HFpEF mice; non-significant
Text: as §1
Histology. […] Histology sections were visualized with the Evos FL Auto 2 Microscope, observed changes in structure were quantified using ImageJ software and representative images are shown.

HFpEF mice [5] = experiment: Echocardiography, cohort 2; type: in vivo, C57BL/6J mice; conditions: HFpEF mice treated with Adropin 450 nmol/kg daily i.p.
Text: as §2
Animal Care and Use. Male C57BL/6J 8-week-old mice were obtained from the Jackson Laboratory and maintained on chow for 4 weeks to acclimate to their new environment. […]
Echocardiography. Mice were anesthetized using isofluorane (1.5%-2.0% v/v by inhalation) and monitored for cardiac functional parameters in the supine position using a Visual Sonics Vevo 3100. […] The left atrial area was quantified in the apical 4-chamber view by tracing the border of the left atrium. Markers of systolic and diastolic function were calculated using standard echocardiography equations. […] Image analysis was performed independently by a blinded sonographer and all parameters were measured at least 3 times, and averages are presented.

GPR19 = conditions: previous work from our group; cited from earlier work

Q: With “Adropin: recombinant Adropin peptide hormone encoded by the ENHO gene; full-length (SEQ ID NO: 1) or cleaved product of amino acids 34-76 (SEQ ID NO: 2) (CHSRSADVDSLSESSPNSSPGPCPEKAPPPQKPSHEGSYLLQP)” as the substance, how does the “relative body weight (change per mouse between days 0 and 29)” value (HFpEF mice [1]; HFpEF mice that received Adropin vs HFpEF mice without treatment) read?
A: significantly lower

Q: And the “relative body weight (change per mouse between days 0 and 29)” value (HFpEF mice [1]; HFpEF mice that received Adropin vs mice on control chow diet)?
A: significantly greater

Q: And the body weight (HFpEF mice [1]; HFpEF mice which received Adropin versus HFpEF mice which did not, daily Adropin for four weeks, beginning on day 8)?
A: reduced; also recorded: decrease

Q: What about the “increase in normalized heart weight to tibia length” value (HFpEF mice [2]; HFpEF increase vs chow, in adropin-treated animals) of the same substance?
A: absent

Q: And the cardiac fibrosis (HFpEF mice [2])?
A: prevented the development; also recorded: reduced

Q: What about the cardiomyocyte hypertrophy (HFpEF mice [2]) of the same substance?
A: prevented the development; also recorded: reduced

Q: What about the cardiac fibrosis (HFpEF mice [2]; listed as adropin) of the same substance?
A: reversed

Q: And the cardiomyocyte hypertrophy (HFpEF mice [2]; listed as adropin)?
A: reversed

Q: And the absolute body weight (HFpEF mice [3])?
A: not associated with a significant decrease; also recorded: does not significantly change

Q: What about the absolute body weight (HFpEF mice [3]; listed as adropin) of the same substance?
A: non-significant decrease

Q: What about the “decrease in liver NAS” value (HFpEF mice [4]) of the same substance?
A: ~7%

Q: What about the “markers of cardiac (diastolic) dysfunction: increased heart/LV mass, decreased cardiac output, increased IVRT, increased LV MPI” value (HFpEF mice [5]) of the same substance?
A: absent; also recorded: improved

Q: What about the “markers of cardiac (diastolic) dysfunction: increased heart/LV mass, decreased cardiac output, increased IVRT, increased LV MPI” value (HFpEF mice [5]; listed as adropin) of the same substance?
A: absent; also recorded: attenuates

Q: And the “Adropin function in cardiac cells” value (GPR19)?
A: dependent on GPR19
